Laboratory results from patent US8232401B2 (Japan Tobacco Inc., priority 2002, dated 2012).

Molecular target: T1, HIV integrase (Human immunodeficiency virus type 1 group M subtype B, UniProt P12497, F1332H)
T1 construct: HIV integrase full length gene; made in house; host or cells: Escherichia coli BL21(DE3)
Assay: Determination of enzyme (HIV integrase) inhibitory activity (strand transfer, microtiter plate, absorbance at 450 nm)
Type: biochemical, HIV (Human Immunodeficiency Virus (type 1))
Details: recombinant HIV integrase (F185H) expressed in E. coli; donor DNA on streptavidin plate, digoxigenin target DNA; 37° C.

Row | Structure (SMILES) | IC50
1 | O=C(O)c1cn(CCO)c2ccc(Cc3cccc(Cl)c3Cl)cc2c1=O [Example 1-1, 6-(2,3-dichlorobenzyl)-1,4-dihydro-1-(2-hydroxyethyl)-4-oxo-3-quinolinecarboxylic acid] | 29 nM
2 | CC(C)C[C@@H](CO)n1cc(C(=O)O)c(=O)c2cc(Cc3cccc(Cl)c3F)cc(OC(C)C)c21 [Example 4-25, (S)-6-(3-Chloro-2-fluorobenzyl)-1-(1-hydroxymethyl-3-methylbutyl)-8-isopropyloxy-4-oxo-1,4-dihydroquinoline-3-carboxylic acid] | 1.9 nM
3 | CC(C)Oc1cc(Cc2cccc(Cl)c2F)cc2c(=O)c(C(=O)O)cn([C@H](CO)C(C)(C)C)c12 [Example 4-26, (S)-6-(3-Chloro-2-fluorobenzyl)-[2,2-dimethyl-1-(hydroxymethyl)propyl]-8-isopropyloxy-4-oxo-1,4-dihydroquinoline-3-carboxylic acid] | 1.5 nM
4 | CC[C@H](C)[C@@H](CO)n1cc(C(=O)O)c(=O)c2cc(Cc3cccc(Cl)c3F)c(OC)cc21 [Example 4-27, 6-(3-Chloro-2-fluorobenzyl)-1-((1S,2S)-1-hydroxymethyl-2-methylbutyl)-7-methoxy-4-oxo-1,4-dihydroquinoline-3-carboxylic acid] | 2.9 nM
5 | CCOc1cc2c(cc1Cc1cccc(Cl)c1F)c(=O)c(C(=O)O)cn2[C@H](CO)[C@@H](C)CC [Example 4-28, 6-(3-Chloro-2-fluorobenzyl)-7-ethoxy-1-((1S,2S)-1-hydroxymethyl-2-methylbutyl)-4-oxo-1,4-dihydroquinoline-3-carboxylic acid] | 2.7 nM
6 | CC[C@@H](CO)n1cc(C(=O)O)c(=O)c2cc(Cc3cccc(Cl)c3F)c(SC)cc21 [Example 4-29, (S)-6-(3-Chloro-2-fluorobenzyl)-1-[1-(hydroxymethyl)propyl]-7-methylsulfanyl-4-oxo-1,4-dihydroquinoline-3-carboxylic acid] | 4.5 nM
7 | CCOc1cc2c(cc1Cc1cccc(Cl)c1F)c(=O)c(C(=O)O)cn2[C@H](CO)C(C)C [Example 4-30, (S)-6-(3-Chloro-2-fluorobenzyl)-7-ethoxy-1-(1-hydroxymethyl-2-methylpropyl)-4-oxo-1,4-dihydroquinoline-3-carboxylic acid] | 2.9 nM
8 | CCOc1cc2c(cc1Cc1cccc(Cl)c1F)c(=O)c(C(=O)O)cn2[C@H](CO)C(C)(C)C [Example 4-31, (S)-6-(3-Chloro-2-fluorobenzyl)-7-ethoxy-1-[2,2-dimethyl-1-(hydroxymethyl)propyl]-4-oxo-1,4-dihydroquinoline-3-carboxylic acid] | 2.1 nM
9 | COc1cc2c(cc1Cc1cccc(Cl)c1F)c(=O)c(C(=O)O)cn2[C@H](CO)C(C)(C)C [Example 4-33, (S)-6-(3-Chloro-2-fluorobenzyl)-1-[2,2-dimethyl-1-(hydroxymethyl)propyl]-7-methoxy-4-oxo-1,4-dihydroquinoline-3-carboxylic acid] | 2 nM
10 | COc1cc(Cc2cccc(Cl)c2F)cc2c(=O)c(C(=O)O)cn([C@H](CO)C(C)(C)C)c12 [Example 4-34, (S)-6-(3-Chloro-2-fluorobenzyl)-1-[2,2-dimethyl-1-(hydroxymethyl)propyl]-8-methoxy-4-oxo-1,4-dihydroquinoline-3-carboxylic acid] | 3.9 nM
11 | CCC[C@@H](CO)n1cc(C(=O)O)c(=O)c2cc(Cc3cccc(Cl)c3F)c(OC(C)C)cc21 [Example 4-35] | 4.3 nM
12 | CCC[C@@H](CO)n1cc(C(=O)O)c(=O)c2cc(Cc3cccc(Cl)c3F)c(OCC)cc21 [Example 4-36, (S)-6-(3-Chloro-2-fluorobenzyl)-7-ethoxy-1-[1-(hydroxymethyl)butyl]-4-oxo-1,4-dihydroquinoline-3-carboxylic acid] | 3.7 nM
13 | CCOc1cc(Cc2cccc(Cl)c2F)cc2c(=O)c(C(=O)O)cn([C@H](CO)C(C)(C)C)c12 [Example 4-37, (S)-6-(3-Chloro-2-fluorobenzyl)-8-ethoxy-1-[2,2-dimethyl-1-(hydroxymethyl)propyl]-4-oxo-1,4-dihydroquinoline-3-carboxylic acid] | 1.9 nM
14 | CCC[C@@H](CO)n1cc(C(=O)O)c(=O)c2cc(Cc3cccc(Cl)c3F)c(OC)cc21 [Example 4-38, (S)-6-(3-Chloro-2-fluorobenzyl)-1-[1-(hydroxymethyl)butyl]-7-methoxy-4-oxo-1,4-dihydroquinoline-3-carboxylic acid] | 3.3 nM
15 | CC[C@H](C)[C@@H](CO)n1cc(C(=O)O)c(=O)c2cc(Cc3cccc(Cl)c3F)c(OC(C)C)cc21 [Example 4-39, 6-(3-Chloro-2-fluorobenzyl)-1-((1S,2S)-1-hydroxymethyl-2-methylbutyl)-7-isopropyloxy-4-oxo-1,4-dihydroquinoline-3-carboxylic acid] | 4.1 nM
16 | CC(C)Oc1cc2c(cc1Cc1cccc(Cl)c1F)c(=O)c(C(=O)O)cn2[C@H](CO)C1CCCCC1 [Example 4-40, (S)-6-(3-Chloro-2-fluorobenzyl)-1-(1-cyclohexyl-2-hydroxyethyl)-7-isopropyloxy-4-oxo-1,4-dihydroquinoline-3-carboxylic acid] | 4.3 nM
17 | CCOc1cc(Cc2cccc(Cl)c2F)cc2c(=O)c(C(=O)O)cn([C@H](CO)C3CCCCC3)c12 [Example 4-41, (S)-6-(3-Chloro-2-fluorobenzyl)-1-(1-cyclohexyl-2-hydroxyethyl)-8-ethoxy-4-oxo-1,4-dihydroquinoline-3-carboxylic acid] | 2.3 nM
18 | COc1cc2c(cc1Cc1cccc(Cl)c1F)c(=O)c(C(=O)O)cn2[C@H](CO)C1CCCCC1 [Example 4-42, (S)-6-(3-Chloro-2-fluorobenzyl)-1-(1-cyclohexyl-2-hydroxyethyl)-7-methoxy-4-oxo-1,4-dihydroquinoline-3-carboxylic acid] | 2.3 nM
19 | CCOc1cc2c(cc1Cc1cccc(Cl)c1F)c(=O)c(C(=O)O)cn2[C@H](CO)C1CCCCC1 [Example 4-43, (S)-6-(3-Chloro-2-fluorobenzyl)-1-(1-cyclohexyl-2-hydroxyethyl)-7-ethoxy-4-oxo-1,4-dihydroquinoline-3-carboxylic acid] | 2.8 nM
20 | COc1cc(Cc2cccc(Cl)c2F)cc2c(=O)c(C(=O)O)cn([C@H](CO)C3CCCCC3)c12 [Example 4-44, (S)-6-(3-Chloro-2-fluorobenzyl)-1-(1-cyclohexyl-2-hydroxyethyl)-8-methoxy-4-oxo-1,4-dihydroquinoline-3-carboxylic acid] | 2.4 nM
21 | CCOc1cc(Cc2cccc(Cl)c2F)cc2c(=O)c(C(=O)O)cn([C@H](CO)C(C)C)c12 [Example 4-45, (S)-6-(3-Chloro-2-fluorobenzyl)-8-ethoxy-1-(1-hydroxymethyl-2-methylpropyl)-4-oxo-1,4-dihydroquinoline-3-carboxylic acid] | 3.4 nM
22 | COc1cc(Cc2cccc(Cl)c2F)cc2c(=O)c(C(=O)O)cn([C@H](CO)C(C)C)c12 [Example 4-46, (S)-6-(3-Chloro-2-fluorobenzyl)-1-(1-hydroxymethyl-2-methylpropyl)-8-methoxy-4-oxo-1,4-dihydroquinoline-3-carboxylic acid] | 5 nM
23 | CCC[C@@H](CO)n1cc(C(=O)O)c(=O)c2cc(Cc3cccc(Cl)c3F)cc(OC(C)C)c21 [Example 4-47, (S)-6-(3-Chloro-2-fluorobenzyl)-1-[1-(hydroxymethyl)butyl]-8-isopropyloxy-4-oxo-1,4-dihydroquinoline-3-carboxylic acid] | 2.3 nM
24 | CCC[C@@H](CO)n1cc(C(=O)O)c(=O)c2cc(Cc3cccc(Cl)c3F)cc(OCC)c21 [Example 4-48, (S)-6-(3-Chloro-2-fluorobenzyl)-8-ethoxy-1-[1-(hydroxymethyl)butyl]-4-oxo-1,4-dihydroquinoline-3-carboxylic acid] | 3 nM
25 | CCC[C@@H](CO)n1cc(C(=O)O)c(=O)c2cc(Cc3cccc(Cl)c3F)cc(OC)c21 [Example 4-49, (S)-6-(3-Chloro-2-fluorobenzyl)-1-[1-(hydroxymethyl)butyl]-8-methoxy-4-oxo-1,4-dihydroquinoline-3-carboxylic acid] | 5.7 nM
26 | CC(C)Oc1cc(Cc2cccc(Cl)c2F)cc2c(=O)c(C(=O)O)cn([C@H](CO)C3CCCCC3)c12 [Example 4-50, (S)-6-(3-Chloro-2-fluorobenzyl)-1-(1-cyclohexyl-2-hydroxyethyl)-8-isopropyloxy-4-oxo-1,4-dihydroquinoline-3-carboxylic acid] | 3.1 nM

Tested on: not given
Assay: not given
Details: not given

Row | Structure (SMILES) | melting point
27 | O=C(O)c1cn(CCO)c2ccc(Cc3cccc(Cl)c3Cl)cc2c1=O [Example 1-1, 6-(2,3-dichlorobenzyl)-1,4-dihydro-1-(2-hydroxyethyl)-4-oxo-3-quinolinecarboxylic acid] | 247 to 249 °C
